In patent US20110280940A1, “Di-Vanilloyl And Tri-Vanilloyl Derivatives For Use In Anti-Cancer Therapy” (priority 2008, published 2011):

Tests used:
CDK2/cyclin A = molecular target: T1, CDK2/cyclin A (Homo sapiens, UniProt P24941); assay: Kinase activity assay, CDK2A; format: biochemical; details: 10 μM, 1% DMSO, 15 μM ATP; residual activity
T1 construct: made in house
Method: (§1) Buffer A: 10 mM MgCl2, 1 mM EGTA, 1 mM DTT, 25 mM Tris-HCl pH 7.5, 50 μg heparin/ml. Buffer C: 60 mM β-glycerophosphate, 15 mM p-nitrophenylphosphate, 25 mM Mops (pH 7.2), 5 mM EGTA, 15 mM MgCl2, 1 mM DTT, 1 mM sodium vanadate, 1 mM phenyl phosphate.
(§2) Kinase activities were assayed in Buffer A or C, at 30° C., at a final ATP concentration of 15 μM. Blank values were subtracted and activities expressed in % of the maximal activity, i.e. in the absence of inhibitors. Controls were performed with appropriate dilutions of DMSO.
(§3) CDK1/cyclin B (M phase starfish oocytes, native), CDK2/cyclin A, CDK2/cyclin E, CDK5/p25 and CDK7/cyclin H (human, recombinant) were prepared as previously described (Leclerc et al., 2001, J. Biol. Chem. 2001, 276, 251-260; Bach et al., 2005, J Biol Chem 280: 31208-31219). Their kinase activity was assayed in buffer C, with 1 mg histone H1/ml, in the presence of 15 μM [gamma-^33P] ATP (3,000 Ci/mmol; 10 mCi/ml) in a final volume of 30 μl. After 30 min incubation at 30° C., 25 μl aliquots of supernatant were spotted onto 2.5×3 cm pieces of Whatman P81 phosphocellulose paper, and, 20 sec later, the filters were washed five times (for at least 5 min each time) in a solution of 10 ml phosphoric acid/liter of water. The wet filters were counted in the presence of 1 ml ACS (Amersham) scintillation fluid.

Erk2 = Erk2 (Rattus norvegicus, UniProt P63086); assay: Kinase activity assay, Erk2; format: biochemical; details: 10 μM, 1% DMSO, 15 μM ATP; residual activity
Method: as §1, §2
Erk2 (rat, recombinant) was assayed as described for CDK1 but using the specific substrate Ets1 (amino acids 1-138) in buffer A.

CDK5/p25 = molecular target: T2, CDK5/p25 (Homo sapiens, UniProt Q00535); assay: Kinase activity assay, CDK5; format: biochemical; details: 10 μM, 1% DMSO, 15 μM ATP; residual activity
T2 construct: made in house
Method: as §1, §2, §3

VM21 melanoma cells = assay: MTT colorimetric assay, overall cell growth, VM21; format: cell-based, human; details: Homo sapiens; MTT, 72 hours of incubation; read-out: In Vitro IC50 Growth Inhibitory Values, VM21
Method in brief: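 Seed cells in their own medium and incubate 24 h at 37 °C. Replace medium with compound-containing medium (10^-8 to 10^-4 M) and incubate 72 h.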

CK1 = assay: Kinase activity assay, CK1; format: biochemical, porcine; details: 10 μM, 1% DMSO, 15 μM ATP; residual activity
Method: as §1, §2
CK1 (porcine brain, native) was assayed as described for CDK1 but using the CK1-specific peptide substrate […]pSAYSITA (Seq. ID NO 2) (Reinhardt et al., 2007, Protein Expr. & Purif. 54, 101-109), obtained from Millegen (Labege, France).

pfGSK3 = pfGSK3 (Plasmodium falciparum, UniProt O77344); assay: Kinase activity assay, pfGSK3; format: biochemical; details: 10 μM, 1% DMSO, 15 μM ATP; residual activity
Method: as §1, §2

U373-MG glioma cell line = assay: Cellular imaging (quantitative videomicroscopy), global growth ratio, U373; format: cell-based; details: Homo sapiens, 50 μM, 72 h, read-out: Global Grow Ratio Treated/Ct (GGR T/Ct) determined by Video Quantitative microscopy, U373
From the text: (§4) As the MTT test is based on the mitochondria functions, we also investigated the effects of the di- and tri-vanilloyl derivatives according to the invention on cell proliferation, migration and morphology by means of a cellular imaging approach (Debeir et al., Cytometry 60:29-40, 2004; Debeir et al., IEEE Trans Med Imaging 24:697-711, 2005) either in the human U373-MG glioma cell line, which is apoptosis-resistant but autophagy-sensitive (Lefranc F et al., Neurosurgery 2008) and in the human A549 non-small-cell-lung cancer cell line, which is apoptosis-resistant and autophagy-resistant (Mijatovic T et al., Neoplasia 2006, May; 8(5):402-12).
(§5) Investigations have also been performed in human normal fibroblasts (WS1 and WI38—see Tables 4 and 5). Cellular imaging relied on the use of computer-assisted phase-contrast microscopy making possible to film the behaviour of living cells in culture dishes for several days.
(§6) Cells were seeded in a 25-cm^2 flask at a low density, treated or not with the vanilloyl-esters invention (at a concentration of 50 μM) and filmed thereafter for a period of 72 h. The experiment was conducted in quadruplicates (in duplicates for DLT-95 compounds).
(§7) The behaviour of the cells, in terms of morphology, growth and death were thus investigated. The effect on the overall growth was measured by counting the number of cells on the first (0 h) and the last image (72 h) of each film. The global growth ratio (GGR) was then deduced by dividing the number of cells on the last image by the number of cells on the first image. The ratio GGRtreated cells/GGRcontrol cells, was further calculated thereby obtaining a value that describes the effect of compounds of the present invention on the overall cell growth. The methodology is fully described and validated in Debeir et al., 2008, Exp Cell Res 314:2985-2998 and Mathieu et al., 2009, J Cell Mol Med, Feb. 20, 2009.
(§8) Illustrative pictures (time=0 h and 72 h) of glioblastoma and normal fibroblast cell line left untreated or treated with poly-vanillic compounds according to the invention (50 μM) are provided in FIG. 1 (U373 glioblastoma) and FIG. 2 (normal fibroblasts). The GGR parameter analyses confirmed the marked impairment of cell growth in both cancer cell lines of the poly-vanillic compounds according to the invention (Table 5).

GSK-3 = assay: Kinase activity assay, GSK3; format: biochemical, porcine; details: 10 μM, 1% DMSO, 15 μM ATP; residual activity
Method: as §1, §2
GSK-3 (porcine brain, native) was assayed, as described for CDK1 but in Buffer A and using a GSK-3 specific substrate (GS-1: […]pEDEEE) (Seq. ID NO 1) (pS stands for phosphorylated serine) (Primot et al., 2000, Protein Expr. & Purif. 20 (3), 394-404). GS-1 was synthesized by Millegen (Labege, France).

VM48 melanoma cells = assay: MTT colorimetric assay, overall cell growth, VM48; format: cell-based, human; details: Homo sapiens; MTT, 72 hours of incubation; read-out: In Vitro IC50 Growth Inhibitory Values, VM48
[1] = test system: A549 non-small-cell-lung cancer cell line; assay: Cellular imaging (quantitative videomicroscopy), global growth ratio, A549; format: cell-based; details: Homo sapiens, 72 h, read-out: Global Grow Ratio Treated/Ct (GGR T/Ct) determined by Video Quantitative microscopy, A549
From the text: as §4, §5, §6, §7, §8

DYRK1A = DYRK1A (Rattus norvegicus, UniProt Q63470); assay: Kinase activity assay, DYRK1A (GST fusion, myelin basic protein substrate); format: biochemical
Method: as §1, §2
DYRK1A (rat, recombinant, expressed in E. coli as a GST fusion protein) was purified by affinity chromatography on glutathione-agarose and assayed as described for CDK1/cyclin B using myelin basic protein (1 mg/ml) as a substrate.

WS1 normal fibroblasts = assay: Cellular imaging (quantitative videomicroscopy), global growth ratio, WS1; format: cell-based, human; details: 50 μM, 72 h
From the text: as §4
(§9) Investigations have also been performed in human normal fibroblasts (WS1 and WI38—see Tables 4 and 5). Cellular imaging relied on the use of computer-assisted phase-contrast microscopy making possible to film the behaviour of living cells in culture dishes for several days. […]
(§10) The behaviour of the cells, in terms of morphology, growth and death were thus investigated. The effect on the overall growth was measured by counting the number of cells on the first (0 h) and the last image (72 h) of each film. […] The ratio GGRtreated cells/GGRcontrol cells, was further calculated thereby obtaining a value that describes the effect of compounds of the present invention on the overall cell growth. […]

WI38 normal fibroblasts = assay: Cellular imaging (quantitative videomicroscopy), global growth ratio, WI38; format: cell-based, human; details: 50 μM, 72 h
From the text: as §4, §9, §10

cancer cell lines = assay: Flow cytometry analyses of pro-autophagic and pro-apoptotic effects; format: cell-based, human; details: cancer cell lines studied
From the text: (§11) The compounds of the invention were subsequently evaluated for their 1) anti-proliferative effect (by means of the colorimetric MTT assay), 2) pro-autophagic and pro-apoptotic effect (by means of flow cytometry analyses), and 3) anti-migratory effect (by means of quantitative videomicroscopy), in the following human cancer cell-lines: a) U373, T98G and Hs683 glioblastoma cells, b) VM21 and VM48 melanoma cells, c) PC-3 prostate cancer cells, d) MCF-7 breast cancer cells, e) LoVo colon cancer cells, f) OE21 oesophageal cancer cells, and g) A549 NSCLC cancer cells, as well as in human WS1 and WI38 normal fibroblasts (i.e. non-cancer cells).

[2] = test system: cancer cells versus normal fibroblasts; assay: Anti-proliferative, anti-migratory and anti-kinase effects, cancer cells versus normal fibroblasts; format: cell-based, human; details: anti-proliferative
From the text: as §11
The best current hits, DLT12 and DLT4, display anti-proliferative, anti-migratory effects and anti-kinase effects which are ˜10 times more pronounced in cancer cells than in normal fibroblasts. […] FIG. 1 illustrates the data obtained with respect to the human U373 glioblastoma model, while FIG. 2 illustrates the data obtained in human normal fibroblasts. […] DLT-95 and its derivatives DLT-95-F and DLT-95-Cl were also shown to have a significant effect on the proliferation 7 different human cancer cell-lines.

T2 sequence (Q00535 whole entry): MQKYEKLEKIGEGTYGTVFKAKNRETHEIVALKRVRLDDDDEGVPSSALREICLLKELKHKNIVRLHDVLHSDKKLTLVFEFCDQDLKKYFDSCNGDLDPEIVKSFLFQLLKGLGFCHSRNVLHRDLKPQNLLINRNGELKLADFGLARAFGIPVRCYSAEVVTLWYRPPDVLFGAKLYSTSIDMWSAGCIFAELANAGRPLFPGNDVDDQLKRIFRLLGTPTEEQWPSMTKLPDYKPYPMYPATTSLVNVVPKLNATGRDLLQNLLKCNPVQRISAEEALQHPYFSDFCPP
T2 sequence (Q15078 99-307 partner limits assumed): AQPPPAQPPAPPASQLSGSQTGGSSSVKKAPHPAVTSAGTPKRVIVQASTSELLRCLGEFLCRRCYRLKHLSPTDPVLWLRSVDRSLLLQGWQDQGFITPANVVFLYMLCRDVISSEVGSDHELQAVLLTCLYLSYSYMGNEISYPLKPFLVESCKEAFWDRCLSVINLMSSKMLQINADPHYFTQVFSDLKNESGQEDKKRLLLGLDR
pfGSK3, sequence (O77344 1-440): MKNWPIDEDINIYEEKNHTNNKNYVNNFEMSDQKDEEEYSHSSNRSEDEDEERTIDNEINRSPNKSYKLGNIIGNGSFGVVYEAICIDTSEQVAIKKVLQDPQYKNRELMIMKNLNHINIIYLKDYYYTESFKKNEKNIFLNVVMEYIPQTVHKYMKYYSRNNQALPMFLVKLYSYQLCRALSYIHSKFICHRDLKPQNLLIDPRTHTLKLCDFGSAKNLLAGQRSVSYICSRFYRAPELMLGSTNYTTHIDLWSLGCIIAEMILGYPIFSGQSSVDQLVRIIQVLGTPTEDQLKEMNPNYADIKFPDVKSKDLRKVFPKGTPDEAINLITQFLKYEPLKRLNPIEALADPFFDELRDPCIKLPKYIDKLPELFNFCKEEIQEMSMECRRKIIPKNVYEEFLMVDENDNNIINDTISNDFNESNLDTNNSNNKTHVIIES
Erk2, sequence (P63086 whole entry): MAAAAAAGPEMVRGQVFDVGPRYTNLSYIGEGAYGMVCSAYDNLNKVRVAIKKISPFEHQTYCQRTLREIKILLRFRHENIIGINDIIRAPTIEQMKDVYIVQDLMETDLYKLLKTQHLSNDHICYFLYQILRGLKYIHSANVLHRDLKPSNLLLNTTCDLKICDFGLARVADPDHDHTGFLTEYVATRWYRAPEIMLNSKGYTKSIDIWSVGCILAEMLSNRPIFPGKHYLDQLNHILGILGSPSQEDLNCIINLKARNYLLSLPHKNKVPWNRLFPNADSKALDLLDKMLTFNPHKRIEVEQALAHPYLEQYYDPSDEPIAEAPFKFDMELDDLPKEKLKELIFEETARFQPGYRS

Row | SMILES | % ENZYMATIC ACTIVITY, CDK2A (CDK2/cyclin A) | % ENZYMATIC ACTIVITY, Erk2 (Erk2) | % ENZYMATIC ACTIVITY, CDK5 (CDK5/p25) | IC50 (VM21 melanoma cells) | % ENZYMATIC ACTIVITY, Ckone (CK1) | % ENZYMATIC ACTIVITY, pfGSK3 (pfGSK3) | activity at 50 µM (U373-MG glioma cell line) | % ENZYMATIC ACTIVITY, GSK3 (GSK-3) | IC50 (VM48 melanoma cells) | activity at 50 µM [1] | inhibition at 10 µM (DYRK1A) | % ENZYMATIC ACTIVITY, Dyrk1A (DYRK1A; 10 μM, 1% DMSO, 15 μM ATP, residual activity) | Global Grow Ratio Treated/Ct (GGR T/Ct) determined by Video Quantitative microscopy, WS1 (WS1 normal fibroblasts) | Global Grow Ratio Treated/Ct (GGR T/Ct) determined by Video Quantitative microscopy, WI38 (WI38 normal fibroblasts) | pro-autophagic or pro-apoptotic effects (cancer cell lines) | effects more pronounced in cancer cells than in normal fibroblasts [2]
1 | COc1cc(C(=O)OC2CCCC(OC(=O)c3ccc(O)c(OC)c3)C2)ccc1O (mixture of isomers) [DLT5, cis/trans-cyclohexane-1,3-diyl bis-(4-hydroxy-3-methoxybenzoate)] | 100% | 92% | 95% | 47 µM | 73% | 89% | 20% | 81% | 47 µM | 10% | 26% | 74% | – | – | – | –
2 | COc1cc(C(=O)O[C@@H]2CCCC[C@H]2OC(=O)c2ccc(O)c(OC)c2)ccc1O (racemic) [DLT4, trans-cyclohexane-1,2-diyl bis-(4-hydroxy-3-methoxybenzoate)] | – | – | – | – | – | – | 20% | – | – | 20% | – | – | 1.0 | 0.9 | does not induce pro-autophagic or pro-apoptotic effects | ~10 times
